The results in this text go back to patent US20250212873A1, “VOLATILE HDAC INHIBITORS FOR THERAPEUTIC AND PLANT APPLICATIONS” (The Regents of the University of California, priority 2022, published 2025).

The test system of assay [1] is A. thaliana plants (Col-0). Briefly: Weed killing assay. It counts as in vivo, Arabidopsis thaliana. The conditions noted are these: 1% (volume/volume) in PO, 7 days vapor exposure, 4 weeks recovery. An excerpt:
Since large scale changes in gene expression occur it is presumed that higher doses of some of the compounds could negatively affect some plants, even causing death. Since Arabidopsis thaliana is also considered a type of weed and goes by the common name Thale cress, it was used as a model to test the weed killing potential at higher doses. In order to evaluate the activity of some of these volatiles in plant killing twenty-seven day old A. thaliana plants (Col-0), that had been transplanted at day 7 to soil, were placed in 10-gallon glass aquarium as chamber along with a petridish containing 2 ml of chemical dissolved in PO at 1% (volume/volume) or PO alone were placed at the other side of the container. Plants were exposed to odor vapors for 7 days and observed for death.
Twenty-seven day old A. thaliana plants (Col-0), that had been transplanted at day 7 to soil, were placed in 10-gallon glass aquarium as chamber along with a petridish containing 2 ml of chemical dissolved in PO at 1% (volume/volume) or PO alone were placed at the other side of the container. Plants were exposed to odor vapors for 7 days and observed for death.

A further assay relates to PC3 Cancer cell line. The assay can be described thus: Cancer cell viability assay, PC3. It counts as cell-based. As for the experimental part: (§1) Cells were maintained in a 37° C. incubator with 5% CO2 throughout the experiment. Compound stocks were dissolved in 10% DMSO, but final concentrations were made fresh in complete media as needed. 10% DMSO solvent was used as control in complete media. Cells were seeded onto 12-well plates and allowed 12-24 hours until treatment began to allow cells to adhere to wells. This was followed by minimum 5-day treatment of compounds, changing the media with treatment every 48 hours. Cell lines A549, PC3, and SK-MEL-5 were seeded at 8000 cells/well which would provide 80-100% confluency after 6-day growth. SH-SY5Y was seeded at 8000 cells/well then 16,000 cells/well due to slower growth and given at least 10 days for sufficient growth. After allotted growth times, cell counts were performed via Countess™ automated cell counter. All assays were completed with a minimum of triplicate replicates for all conditions and analyzed through GraphPad Prism One-way ANOVA for significance.

The test system of assay [2] is Arabidopsis thaliana leaflets. Briefly: RNA-seq of leaflets of Arabidopsis exposed to diacetyl. The class given is in vivo. As for the experimental part:
A. thaliana plants (Col-0) that had been transplanted at day 7 to soil were placed in the experimental room for 2 days to acclimate (23°° C. with a 12-hour light/dark cycle). A single potted plant was placed in a 4-liter clear glass jar, with openings attached to a vacuum to allow for air exchange. A small beaker containing 1 ml of 1% diacetyl in PO or PO alone were placed inside the jar. Plants were watered at 2.5 days. After 5 days, individual leaflets were dissected, and flash frozen in liquid nitrogen. Trizol-based RNA isolation was carried out as above. Two biological replicates were performed for each condition, with an average of 68,355,820 reads/replicate, with an average of 95% mapped. Multiplexed libraries were made from total RNA input using the Illumina TruSeq RNA sample preparation kit (v2) and 50 bps single-end sequencing was done using the NextSeq500.
The HDACs are also important for gene expression in the shoots as well. Young plants in pots were exposed to vapors of diacetyl from a solution of the same concentration as before and performed an RNASeq analyses. 321 genes were differentially regulated in the leaflet of Arabidopsis thaliana following exposure to volatile diacetyl for 5 days (FDR<0.05). These DEGs are distributed across multiple chromosome locations and represent genes of diverse molecular functions (FIG. 27C). […]

For assay [3], the system named is SK-MEL-5 Cancer cell line. The assay can be described thus: Cancer cell viability assay, SK-MEL-5. The class given is cell-based. Conditions: triplicates. As for the experimental part: as §1

As to `CC(=O)C(C)=O` [2,3-butanedione], the “plants killed (dead)” value in assay [1] is listed as 6 of 8. Besides, the “inhibition of prostate cancer (PC3) cell line, summary” value in the assay with PC3 Cancer cell line is reported as “has potential in inhibiting”. Also, the “changes in proliferation, PC3” value in the assay with PC3 Cancer cell line (33 uM, triplicates) is reported as “No Significant changes in proliferations”. The “gene expression in leaflets (RNA-seq)” value in assay [2] (volatile exposure) is “significant changes in gene expression”. The “genes differentially regulated in the leaflet” value in assay [2] (volatile exposure 5 days, 1% in PO, FDR<0.05) was 321 genes. The “changes in proliferation, SK-MEL-5” value in assay [3] (33 uM) and in assay [3] (100 uM) was “No significant changes in proliferations” each time.
